{"source": "ChEMBL document CHEMBL3297730", "about": "“Identification of 2,3-disubstituted pyridines as potent, non-emetic PDE4 inhibitors” (Bioorg Med Chem Lett, 2014)", "key": {"[1]": {"test_system": "Mus musculus", "test": "Inhibition of eosinophil infiltration in ovalbumin-sensitized mouse at 10 mg/kg, po qd for 2 days administered 30 mins prior to ovalbumin challenge relative to vehicle-treated control", "assay_type": "functional"}, "[2]": {"species": "Cavia porcellus", "test": "Inhibition of Hartley guinea pig PDE4 assessed as hydrolization of cAMP by measuring [3H]cAMP at 100 nM by radioisotope method"}, "[3]": {"test_system": "Cavia porcellus", "test": "Induction of bronchodilation in ovalbumin-sensitized guinea pig at 10 mg/kg, po administered 1 hr prior to ovalbumin challenge measured for 20 mins relative to vehicle-treated control", "assay_type": "functional"}, "[4]": {"test_system": "Cavia porcellus", "test": "Induction of bronchodilation in ovalbumin-sensitized guinea pig at 10 mg/kg, po administered 4 hrs prior to ovalbumin challenge measured for 20 mins relative to vehicle-treated control", "assay_type": "functional"}, "[5]": {"test_system": "Mustela putorius furo", "test": "Toxicity in Marshall ferret assessed as vomiting at 30 mg/kg, po after 2 hrs", "assay_type": "organism-based", "parameters": "dose 30 mg/kg, route oral", "details": "in vivo"}, "[6]": {"test": "Drug level in ovalbumin-sensitized guinea pig lung treated with [14C]-2-(3-chlorophenoxy)-3-[3-(3-hydroxypyridin-4-yl)propoxy]pyridine at 10 mg/kg, po after 4 hrs", "assay_type": "ADME, organism-based, Cavia porcellus", "parameters": "dose 10 mg/kg, route oral", "details": "in vivo"}, "[7]": {"test": "Inhibition of Hartley guinea pig PDE4 assessed as hydrolization by radioisotope method", "parameters": "species or system Cavia porcellus"}, "[8]": {"test_system": "Mustela putorius furo", "test": "Toxicity in Marshall ferret assessed as vomiting at 300 mg/kg, po after 2 hrs", "assay_type": "organism-based", "parameters": "dose 300 mg/kg, route oral", "details": "in vivo"}, "[9]": {"test": "Drug level in ovalbumin-sensitized guinea pig plasma assessed as radioactivity at 10 mg/kg, po after 0.5 hrs", "assay_type": "ADME, organism-based, Cavia porcellus", "parameters": "dose 10 mg/kg, route oral", "details": "in vivo"}, "[10]": {"test": "Drug level in ovalbumin-sensitized guinea pig brain assessed as radioactivity at 10 mg/kg, po after 4 hrs", "assay_type": "ADME, organism-based, Cavia porcellus", "parameters": "dose 10 mg/kg, route oral", "details": "in vivo"}, "[11]": {"test": "Drug level in ovalbumin-sensitized guinea pig brain assessed as radioactivity at 10 mg/kg, po after 0.5 hrs", "assay_type": "ADME, organism-based, Cavia porcellus", "parameters": "dose 10 mg/kg, route oral", "details": "in vivo"}, "[12]": {"test": "Drug level in ovalbumin-sensitized guinea pig lung assessed as radioactivity at 10 mg/kg, po after 4 hrs", "assay_type": "ADME, organism-based, Cavia porcellus", "parameters": "dose 10 mg/kg, route oral", "details": "in vivo"}, "[13]": {"test_system": "Mustela putorius furo", "test": "Toxicity in Marshall ferret assessed as vomiting at 10 mg/kg, po after 2 hrs", "assay_type": "organism-based", "parameters": "dose 10 mg/kg, route oral", "details": "in vivo"}, "[14]": {"species": "Cavia porcellus", "test": "Inhibition of late asthmatic response in ovalbumin-sensitized guinea pig", "assay_type": "functional"}, "[15]": {"test": "Drug level in ovalbumin-sensitized guinea pig lung assessed as radioactivity at 10 mg/kg, po after 0.5 hrs", "assay_type": "ADME, organism-based, Cavia porcellus", "parameters": "dose 10 mg/kg, route oral", "details": "in vivo"}, "[16]": {"test": "Drug level in ovalbumin-sensitized guinea pig lung treated with [14C]-2-(3-chlorophenoxy)-3-[3-(3-hydroxypyridin-4-yl)propoxy]pyridine at 10 mg/kg, po after 2 hrs", "assay_type": "ADME, organism-based, Cavia porcellus", "parameters": "dose 10 mg/kg, route oral", "details": "in vivo"}, "[17]": {"test": "Drug level in ovalbumin-sensitized guinea pig lung treated with [14C]-2-(3-chlorophenoxy)-3-[3-(3-hydroxypyridin-4-yl)propoxy]pyridine at 10 mg/kg, po after 0.5 hrs", "assay_type": "ADME, organism-based, Cavia porcellus", "parameters": "dose 10 mg/kg, route oral", "details": "in vivo"}, "[18]": {"test": "Drug level in ovalbumin-sensitized guinea pig trachea assessed as radioactivity at 10 mg/kg, po after 0.5 hrs", "assay_type": "ADME, organism-based, Cavia porcellus", "parameters": "dose 10 mg/kg, route oral", "details": "in vivo"}, "[19]": {"test": "Drug level in ovalbumin-sensitized guinea pig trachea assessed as radioactivity at 10 mg/kg, po after 4 hrs", "assay_type": "ADME, organism-based, Cavia porcellus", "parameters": "dose 10 mg/kg, route oral", "details": "in vivo"}, "[20]": {"species": "Cavia porcellus", "test": "Inhibition of immediate asthmatic response in ovalbumin-sensitized guinea pig", "assay_type": "functional"}, "[21]": {"test": "Drug level in ovalbumin-sensitized guinea pig trachea assessed as radioactivity at 10 mg/kg, po after 2 hrs", "assay_type": "ADME, organism-based, Cavia porcellus", "parameters": "dose 10 mg/kg, route oral", "details": "in vivo"}, "[22]": {"test": "Drug level in ovalbumin-sensitized guinea pig plasma treated with [14C]-2-(3-chlorophenoxy)-3-[3-(3-hydroxypyridin-4-yl)propoxy]pyridine at 10 mg/kg, po after 0.5 hrs", "assay_type": "ADME, organism-based, Cavia porcellus", "parameters": "dose 10 mg/kg, route oral", "details": "in vivo"}, "[23]": {"test": "Drug level in ovalbumin-sensitized guinea pig brain assessed as radioactivity at 10 mg/kg, po after 2 hrs", "assay_type": "ADME, organism-based, Cavia porcellus", "parameters": "dose 10 mg/kg, route oral", "details": "in vivo"}, "[24]": {"test": "Drug level in ovalbumin-sensitized guinea pig trachea treated with [14C]-2-(3-chlorophenoxy)-3-[3-(3-hydroxypyridin-4-yl)propoxy]pyridine at 10 mg/kg, po after 0.5 hrs", "assay_type": "ADME, organism-based, Cavia porcellus", "parameters": "dose 10 mg/kg, route oral", "details": "in vivo"}, "[25]": {"test": "Drug level in ovalbumin-sensitized guinea pig plasma assessed as radioactivity at 10 mg/kg, po after 2 hrs", "assay_type": "ADME, organism-based, Cavia porcellus", "parameters": "dose 10 mg/kg, route oral", "details": "in vivo"}, "[26]": {"biological_target": "Phosphodiesterase 4 (Homo sapiens, UniProt P27815+Q08499+Q07343+Q08493)", "test": "Inhibition of human PDE4", "assay_type": "protein assay"}, "[27]": {"test": "Drug level in ovalbumin-sensitized guinea pig lung assessed as radioactivity at 10 mg/kg, po after 2 hrs", "assay_type": "ADME, organism-based, Cavia porcellus", "parameters": "dose 10 mg/kg, route oral", "details": "in vivo"}, "[28]": {"test": "Inhibition of bovine PDE3", "parameters": "species or system Bos taurus"}, "[29]": {"test": "Drug level in ovalbumin-sensitized guinea pig plasma assessed as radioactivity at 10 mg/kg, po after 4 hrs", "assay_type": "ADME, organism-based, Cavia porcellus", "parameters": "dose 10 mg/kg, route oral", "details": "in vivo"}}}
{"smiles": "Brc1cccc(Cc2ncccc2OCCCc2ccncc2)c1", "values": [{"measurement": "inhibition in vivo at 10 mg/kg", "setting": "[1]", "result": 43, "unit": "%"}, {"measurement": "inhibition", "setting": "[2]", "result": 89, "unit": "%"}, {"measurement": "Activity", "setting": "[3]", "result": 63, "unit": "%"}]}
{"smiles": "Oc1cnccc1CCCOc1cccnc1Oc1cccc(Br)c1", "values": [{"measurement": "Activity", "setting": "[4]", "result": 12, "unit": "%"}, {"measurement": "Activity", "setting": "[5]", "result": "Non-toxic"}, {"measurement": "inhibition in vivo at 10 mg/kg", "setting": "[1]", "result": 50, "unit": "%"}, {"measurement": "inhibition", "setting": "[2]", "result": 77, "unit": "%"}, {"measurement": "Activity", "setting": "[3]", "result": 70, "unit": "%"}]}
{"smiles": "Oc1cnccc1CCCOc1cccnc1Oc1cccc(Cl)c1", "values": [{"measurement": "Activity", "setting": "[4]", "result": 45, "unit": "%"}, {"measurement": "Drug uptake", "setting": "[6]", "result": 7.7, "unit": "ngequiv/g"}, {"measurement": "IC50", "setting": "[7]", "result": 38, "unit": "nM"}, {"measurement": "Activity", "setting": "[8]", "result": "Non-toxic"}, {"measurement": "Cp", "setting": "[9]", "result": 387.6, "unit": "ngequiv/ml"}, {"measurement": "Drug uptake", "setting": "[10]", "result": 14.5, "unit": "ngequiv/g"}, {"measurement": "Drug uptake", "setting": "[11]", "result": 31.9, "unit": "ngequiv/g"}, {"measurement": "Activity", "setting": "[5]", "result": "Non-toxic"}, {"measurement": "Drug uptake", "setting": "[12]", "result": 178.7, "unit": "ngequiv/g"}, {"measurement": "Activity", "setting": "[13]", "result": "Non-toxic"}, {"measurement": "inhibition (INH)", "setting": "[14]", "result": 40, "unit": "%"}, {"measurement": "Drug uptake", "setting": "[15]", "result": 251.2, "unit": "ngequiv/g"}, {"measurement": "Drug uptake", "setting": "[16]", "result": 12.8, "unit": "ngequiv/g"}, {"measurement": "Drug uptake", "setting": "[17]", "result": 21, "unit": "ngequiv/g"}, {"measurement": "Drug uptake", "setting": "[18]", "result": 142.1, "unit": "ngequiv/g"}, {"measurement": "Drug uptake", "setting": "[19]", "result": 90.1, "unit": "ngequiv/g"}, {"measurement": "inhibition (INH)", "setting": "[20]", "result": 45, "unit": "%"}, {"measurement": "Drug uptake", "setting": "[21]", "result": 85.1, "unit": "ngequiv/g"}, {"measurement": "Cp", "setting": "[22]", "result": 1.7, "unit": "ngequiv/ml"}, {"measurement": "inhibition", "setting": "[2]", "result": 75, "unit": "%"}, {"measurement": "Drug uptake", "setting": "[23]", "result": 17.7, "unit": "ngequiv/g"}, {"measurement": "Drug uptake", "setting": "[24]", "result": 14.4, "unit": "ngequiv/g"}, {"measurement": "Cp", "setting": "[25]", "result": 452.8, "unit": "ngequiv/ml"}, {"measurement": "IC50", "setting": "[26]", "result": 33, "unit": "nM"}, {"measurement": "Drug uptake", "setting": "[27]", "result": 232.9, "unit": "ngequiv/g"}, {"measurement": "IC50", "setting": "[28]", "result": "> 30000", "unit": "nM"}, {"measurement": "Activity", "setting": "[3]", "result": 55, "unit": "%"}, {"measurement": "Cp", "setting": "[29]", "result": 346.2, "unit": "ngequiv/ml"}]}
{"smiles": "Oc1cnccc1CCCOc1cccnc1Oc1cc(Cl)cc(Cl)c1", "values": [{"measurement": "inhibition", "setting": "[2]", "result": 6, "unit": "%"}]}
{"smiles": "O=C(c1cccc(Br)c1)c1ncccc1OCCCc1ccncc1", "values": [{"measurement": "inhibition", "setting": "[2]", "result": 27, "unit": "%"}]}
{"smiles": "Oc1cnccc1CCCOc1cccnc1Cc1cccc(Br)c1", "values": [{"measurement": "inhibition in vivo at 10 mg/kg", "setting": "[1]", "result": 44, "unit": "%"}, {"measurement": "inhibition", "setting": "[2]", "result": 87, "unit": "%"}, {"measurement": "Activity", "setting": "[3]", "result": 13, "unit": "%"}]}
{"smiles": "Oc1cnccc1CCCOc1cccnc1Sc1cccc(Br)c1", "values": [{"measurement": "inhibition in vivo at 10 mg/kg", "setting": "[1]", "result": 33, "unit": "%"}, {"measurement": "inhibition", "setting": "[2]", "result": 66, "unit": "%"}, {"measurement": "Activity", "setting": "[3]", "result": 8, "unit": "%"}]}
{"smiles": "Brc1cccc(Nc2ncccc2OCCCc2ccncc2)c1", "values": [{"measurement": "inhibition", "setting": "[2]", "result": 51, "unit": "%"}]}
